US20210379068A1, “METHODS AND MATERIALS FOR TREATING NEUROPSYCHIATRIC DISORDERS” (Mayo Foundation for Medical Education and Research, priority 2018, published 2021)
“Also recorded” adds a separate entry of the source.

Experiments:
Format in all cases: in vivo, mouse
INK-ATTAC;db/db mice = test: Open field test, INK-ATTAC;db/db mice treated with AP20187; details: AP20187 vs vehicle, 2 months
Experimental: (§1) INK-ATTAC mice were injected intraperitoneally (i.p.) with AP20187 (10 mg/kg) or vehicle for 3 days every 2 weeks for a total of 8-10 weeks.
Locomotor activity and anxiety-like behavior of mice were assessed in sound-insulated, rectangular activity chambers (Med Associates Inc., St Albans, Vt., USA: W×L×D=27 cm×27 cm×20 cm with continually running fans, infrared lasers, and sensors). Beam breaks were assessed in 2-minute bins over 30 minutes, converted automatically to current mouse location and distance travelled (cm), and recorded on a computer with Med-PC software Version 4.0. Before the test, mice were acclimatized to the room for 1-1.5 hours before being introduced into the chambers. Mice were habituated for 5 minutes in the Open Field chamber (without recording) then placed for another 5 minutes in the home cage. Afterwards, mice were introduced back to the chambers and all mouse movements were recorded for 30 minutes. Anxiety was quantified by the distance mice travelled in the central 25% of the chamber (zone 1) as a function of the total distance mice travelled and by frequencies of entries into zone 1.

INK-ATTAC mice = test: Stone's T-maze, INK-ATTAC mice treated with AP20187; details: chow/HFD INK-ATTAC mice; AP20187 vs vehicle
Experimental: as §1
A water-motivated version of the Stone's T-maze was used to measure parameters of cognition. A straight run (for pre-training) or Stone's T-maze were placed into a steel pan filled with water to a depth of approximately 3 cm so that half the height of the interior walls of the maze were under water. The ceilings of both the straight run and maze were covered with clear acrylic to prevent mice from rearing out of the water. These dimensions created a situation that enables the mice to maintain contact with the floor while keeping their heads above water. The mice were placed into a start box and were pushed into the maze using a sliding panel. At the end of the straight run or maze there was a goal box that contains a ramp to a dry floor, which allows the mice to escape from the water upon successful completion of the straight run or maze. On day one, mice underwent straight run training to establish the concept that moving forward allows them to escape the water by reaching a water-free goal box. Successful completion of this phase requires the mice to reach the goal box in 10 seconds or faster in 8 out of 10 trials. […] Maze training commenced the following day. Mice had to complete 9 maze acquisition trials in a single day. […]

SASP factors = test: Circulating cytokines in blood plasma, INK-ATTAC mice on HFD; details: HFD-fed INK-ATTAC mice; AP vs vehicle
Experimental: as §1
Serum levels of cytokines: Eotaxin, G-Csf, Tnf-α, Il-6, Ifn-γ, Il-1α, Il-1β, Il-17, Il-2, Kc/Cxcl1, Mcp-1, M-Csf, Mig, Mip-1α, and Mip-1β were determined using a Multiplexing LASER Bead Assay (Mouse Cytokine Array/Chemokine Array 31-Plex (MD31), Eve Technologies; Canada). Blood was withdrawn from mice by punctuation of the sub-mandibular vein at the day of dissection before an animal was sacrificed. 50 μL of serum were shipped to Eve Technologies on dry ice. Due to high variability of data an unbiased elimination of outliers was performed using ROUT's method (Graphpad 7 Prism). The same panel was used to detect SASP in MAF and 50 μl of media was shipped to Eve Technologies on dry ice.

[1] = tested on: Plin2+ periventricular glia; test: Periventricular Plin2+ and TAF-positive cells (lateral ventricle), HFD INK-ATTAC mice; details: AP20187 vs vehicle
Experimental: as §1
Paraffin sections were deparaffinized with Histoclear and hydrated in an ethanol gradient followed by water and PBS. Antigen was retrieved by incubation in 0.01M citrate buffer (pH 6.0) at 95° C. for 10 minutes. Slides were placed in blocking buffer (1:60 normal goat serum [S-1000, Vector Laboratories] in 0.1% BSA/PBS) for 60 minutes at room temperature. […] Primary antibodies used (Table 2) were diluted in blocking buffer and applied overnight at 4° C. The next day, slides were washed 3 times with PBS and incubated for 30 minutes with secondary goat, anti-rabbit antibody (1:200; Vector Laboratories #BA-1000) for TAF staining or for 60 minutes with secondary Alexa antibody (Table 1). For TAF staining, Fluorescein-Avidin in PBS (1:500; #A-2011, Vector Lab) was applied to each sample for 20 minutes. Slides were washed 3 times in PBS, which was followed by FISH for TAF detection. […]
A single, 3 μm-thick section per mouse was used for TAF staining, while for Dcx and Plin2 staining was performed on three 10 μm-thick sections 80 μm-apart. To quantify periventricular lipid accumulation 10-30 images in the periventricular region were taken using the DM5500 widefield fluorescence microscope from Leica with a 10× (for frequency of periventricular glia) or ×40 (for ALISE phenotype of ependymal cells) objective lens. Number of Plin2-positive cells (for frequency of ALISE-positive periventricular glia) or area of Plin2-positive vesicles (for ALISE phenotype of ependymal cells) was assessed using ImageJ software. For identity assessment of Plin2+ cells, 10 μm-thick sections were stained with combination of antibodies for Iba1 (secondary antibody conjugated with Alexa Fluor 488), Plin2 (secondary antibody conjugated with Alexa Fluor 594), and Vimentin (secondary antibody conjugated with Alexa Fluor 647) and quantified for frequency of Plin2+ astrocytes (Iba1−, Vim+) and microglia (Iba1+) in the periventricular region. […]

CC[C@H](C(=O)N1CCCC[C@H]1C(=O)O[C@H](CCc1ccc(OC)c(OC)c1)c1cccc(OCC(=O)NCC(CNC(=O)COc2cccc([C@@H](CCc3ccc(OC)c(OC)c3)OC(=O)[C@@H]3CCCCN3C(=O)[C@@H](CC)c3cc(OC)c(OC)c(OC)c3)c2)CN(C)C)c1)c1cc(OC)c(OC)c(OC)c1 [AP]
anxiety-like behavior: distance travelled in the central area, open field (INK-ATTAC;db/db mice): significantly reduced anxiety-like behavior
number of entries into the central area, open field (INK-ATTAC;db/db mice): not significantly increased
total distance travelled (activity), 30 minute open field (INK-ATTAC;db/db mice): not affected; also recorded: did not alter
anxiety-like behavior: distance travelled in the central area, open field (INK-ATTAC;db/db mice; listed as AP20187): significant difference
short-term memory (Stone's maze: time to finish, frequency of errors) (INK-ATTAC mice): not affected; also recorded: not altered
G-Csf in the bloodstream (SASP factors): down-regulated
Il-1β in the bloodstream (SASP factors): down-regulated
Kc/Cxcl1 in the bloodstream (SASP factors): down-regulated
Mcp-1 in the bloodstream (SASP factors): down-regulated
Mig in the bloodstream (SASP factors): down-regulated
Tnf-α in the bloodstream (SASP factors): down-regulated
Plin2+ cells (cells containing lipid droplets) in the periventricular area [1]: significant reduction
cells bearing senescent markers (NeuN negative, TAF-positive cells) in the periventricular region [1]: significant reduction
Plin2+ cells (cells containing lipid droplets) in the periventricular area ([1]; listed as AP20187): reduced lipid droplets
